Results reported in patent publication US11744819B2, “Antibiotic cannabinoid-terpene formulations” (priority 2019, dated 2023).
≈ marks a conversion by molar mass, not a printed value. Where “and” joins values, the source holds several entries; their conditions need not be identical. Identical values can stand only once. Like-named read-outs stand apart in the source and are kept apart here.

What was measured:
[1] = tested on: E. faecium clinical isolate 69C6 (vancomycin resistant); experiment: microbe, parasite or virus in culture; conditions: Enterococcus faecium
[2] = tested on: E. faecium clinical isolate 58C9 (vancomycin and daptomycin resistant); conditions: for Fold reduction in daptomycin MIC in combination with the cannabinoid: E. faecium isolate 58c9; for MIC: clinical enterococcal strain 58C9, vancomycin and daptomycin resistant
[3] = tested on: Streptococcus pyogenes ATCC 51878; experiment: MIC determination; format: cell-based; conditions: ATCC51878
Enterococcus faecalis = experiment: MIC determination; format: cell-based
E. faecium VRE 55A6 = experiment: microbe, parasite or virus in culture; format: cell-based, Enterococcus faecium; conditions: for MIC Alone / MIC: compound alone in checkerboard; for MIC: Enterococcus faecium, VRE, read-out: MIC Alone, E. faecium VRE 55A6
Text: In therapeutic applications, synergy between active ingredients occurs when an observed combined therapeutic effect is greater than the sum of therapeutic effects of individual active ingredients, or a new therapeutic effect is produced that the active ingredients could not produce alone. […] In this context, the enhancement of therapeutic effect may take the form of increased efficacy or potency and/or decreased adverse effects. The synergistic effect may be mediated in whole or in part by the pharmacokinetics and/or pharmacodynamics of the active ingredients in a subject, so that the amount and proportion of the ingredients in the formulation may be synergistic in vivo. This in vivo synergy may be effected with a formulation that includes the active ingredients in amounts and proportions that are also synergistic in in vitro assays of efficacy. As used herein, the term “synergistically effective amounts” accordingly refers to amounts that are synergistic in vivo and/or in vitro. A numeric quantification of synergy is often expressed as a fractional inhibitory concentration index (FICI), which represents the sum of the fractional inhibitory concentrations (FICs) of each drug tested, where the FIC is determined for each drug by dividing the minimum inhibitory concentration (MIC, the lowest concentration of the drug which prevents visible growth of the bacterium in a standard in vitro assay-standard colorometric assay based on resazurin) of each drug when used in combination by the MIC of each drug when used alone. In very general terms, a FICI lower or higher than 1 indicates positively correlated activity (at least additive or potentiation) or an absence of positive interactions, respectively. More definitively, synergy of two compounds may be conservatively defined as a FICI of ::::0.5 (see Odds, 2003; with additivity or potentiation corresponding to a FICI of >0.5 to ::::0.75; no interaction (indifference) corresponding to a FICI of >1 to ::::4; and antagonism corresponding to a FICI of >>4). […] (Berenbaum, 1978; Yu et al., 1980). To estimate the optimal concentrations in triple combinations, the optimal concentrations of trans-caryophyllene and cannabinoid were utilized in combination with a series of daptomycin dilutions.
Pre-cultures of bacteria growing in their corresponding liquid media (defined below) were diluted to an 00600 of 0.0025 and 100 μl was added to 100 μl of medium containing serial 2-fold dilutions of cannabinoid (cannabinoid stocks, in methanol or acetonitrile for acidic forms, were diluted in growth medium) in 96-well plates. Plates were then incubated for 20-24 h at 37° C., and growth was recorded as 00600 in a Thermo Scientific™ Varioskan™ Flash Multimode Reader.
FICI values was determined in a 96 well checkerboard format using the MIC assay for cannabinoids (compound A), terpenes (compound B), and daptomycin (compound C) alone and in combinations. Terpene stocks were prepared in DMSO and diluted in the growth medium. The fractional inhibitory concentration for each compound was calculated as follows: FICA=(MIC of compound A in the presence of compound B)/(MIC of compound A alone). Similarly, the FICs for compounds Band C were calculated. The FICI was calculated as FICA plus FICs plus FICc.

[4] = tested on: Staphylococcus aureus MRSA; experiment: microbe, parasite or virus in culture; format: cell-based
[5] = tested on: E. faecium clinical isolate 58C9 (vancomycin and daptomycin resistant); experiment: microbe, parasite or virus in culture; conditions: Enterococcus faecium
[6] = tested on: Enterococcus faecium 33D3; conditions: for Fold reduction in daptomycin MIC in combination with the cannabinoid: E. faecium isolate 3303; for MIC: clinical enterococcal strain 3303
[7] = tested on: Mycobacterium abscessus ATCC 19977; experiment: MIC determination (resazurin); format: cell-based; conditions: Mycobacteroides abscessus, ATCC19977
[8] = tested on: Staphylococcus epidermidis ATCC 14990; experiment: MIC determination; format: cell-based; conditions: ATCC14990
[9] = tested on: Enterococcus faecium 33D3; experiment: microbe, parasite or virus in culture
[10] = tested on: E. faecium strains 3303, 69C6, 58C9 and 55A6; experiment: Kill curves (CFU by serial dilution); format: cell-based, Enterococcus faecium; conditions: for kinetics of E. faecium killing: at equal concentrations of CBD, CBG, or CBC; for kinetics of E. faecium killing / bactericidal activity (viability, CFU): FIG. 1; for bactericidal activity (viability, CFU): cannabinoid alone, 1x-4x MIC, planktonic E. faecium; for growth and CFU in combination with daptomycin: ½×MIC of cannabinoid with 1×-⅛×MIC of daptomycin, strains 3303, 58C9, 55A6
[11] = tested on: Mycobacterium tuberculosis H37Rv; experiment: MIC determination (PrestoBlue); format: cell-based; conditions: Mycobacterium tuberculosis, H37RV
[12] = tested on: E. faecium clinical isolate 55A6 (vancomycin and daptomycin resistant); conditions: for Fold reduction in daptomycin MIC in combination with the cannabinoid: E. faecium isolate 55a6
[13] = E. faecium VRE 55A6, pairwise, with daptomycin
[14] = E. faecium VRE 55A6, pairwise, with trans-caryophyllene
[15] = E. faecium VRE 55A6, triple, with daptomycin and trans-caryophyllene
[16] = 33D3, Enterococcus faecium 33D3 (Table 1)
[17] = 33D3, clinical enterococcal strain 3303
[18] = E. faecium VRE 55A6, pairwise, with CBC
[19] = E. faecium VRE 55A6, pairwise, with CBD
[20] = E. faecium VRE 55A6, pairwise, with CBG
[21] = E. faecium VRE 55A6, text b61, Table 7D
[22] = E. faecium VRE 55A6, triple, with CBC and trans-caryophyllene
[23] = E. faecium VRE 55A6, triple, with CBD and trans-caryophyllene
[24] = E. faecium VRE 55A6, triple, with CBG and trans-caryophyllene

## CCCCCc1cc(O)c2c(c1)OC(C)(CCC=C(C)C)C=C2 (stereo not drawn) [CBC, cannabichromene]
[1]
  MIC: 1 mg/L (≈ 3.18 µM)
[2]
  Fold reduction in daptomycin MIC in combination with the cannabinoid: 8 Fold
[3]; Streptococcus pyogenes
  MIC: 1 mg/L (≈ 3.18 µM)
Enterococcus faecalis
  MIC: 2 mg/L (≈ 6.36 µM)
E. faecium VRE 55A6; E. faecium VRE 55A6
  MIC Alone: 1 mg/L
E. faecium VRE 55A6; [13]
  MIC In combination: 0.25 mg/L
  Max. fold change in MIC: 8 fold
E. faecium VRE 55A6; [14]
  MIC In combination: 0.5 mg/L
  Max. fold change in MIC: 2 fold
E. faecium VRE 55A6; [15]
  MIC In combination: 0.25 mg/L
  Max. fold change in MIC: 8 fold
E. faecium VRE 55A6
  MIC: 2 mg/L
[4]
  MIC: 4 mg/L (≈ 12.7 µM)
[5]
  MIC: 1 mg/L (≈ 3.18 µM)
[6]
  Fold reduction in daptomycin MIC in combination with the cannabinoid: 128 Fold
[7]
  MIC: 4 mg/L (≈ 12.7 µM)
[8]; Staphylococcus epidermidis
  MIC: 4 mg/L (≈ 12.7 µM)
[9]; [16]
  MIC: 1 to 2 mg/L (≈ 3.18 to 6.36 µM)
[9]; [17]
  MIC: 1 mg/L (≈ 3.18 µM)
[10]
  kinetics of E. faecium killing: faster than for CBO
  bactericidal activity (viability, CFU): bactericidal
  growth and CFU in combination with daptomycin: significantly inhibited growth of all strains and reduced CFU
[11]; Media 7H9, read-out: MIC
  MIC: 8 mg/L (≈ 25.4 µM)
[11]; Media PB, read-out: MIC
  MIC: 4 mg/L (≈ 12.7 µM)
[12]
  Fold reduction in daptomycin MIC in combination with the cannabinoid: 512 Fold

## C=C(C)[C@@H]1CCC(C)=C[C@H]1c1c(O)cc(CCCCC)cc1O [CBD, cannabidiol, reference compound]
[1]
  MIC: 1 mg/L (≈ 3.18 µM)
[3]; Streptococcus pyogenes ATCC 51878, read-out: MIC
  MIC: 1 mg/L (≈ 3.18 µM)
Enterococcus faecalis; read-out: MIC
  MIC: 2 mg/L (≈ 6.36 µM)
E. faecium VRE 55A6; E. faecium VRE 55A6
  MIC Alone: 2 mg/L
E. faecium VRE 55A6; [13]
  MIC In combination: 0.5 mg/L
E. faecium VRE 55A6; [14]
  MIC In combination: 1 mg/L
E. faecium VRE 55A6; [15]
  MIC In combination: 0.5 mg/L
E. faecium VRE 55A6
  MIC: 4 mg/L
[4]; read-out: MIC
  MIC: 2 mg/L (≈ 6.36 µM)
[5]
  MIC: 1 mg/L (≈ 3.18 µM)
[7]; Mycobacterium abscessus ATCC 19977, read-out: MIC
  MIC: 16 mg/L (≈ 50.9 µM)
[8]; Staphylococcus epidermidis ATCC 14990, read-out: MIC
  MIC: 2 mg/L (≈ 6.36 µM)
[9]; [16]
  MIC: 1 to 2 mg/L (≈ 3.18 to 6.36 µM)
[9]; [17]
  MIC: 1 mg/L (≈ 3.18 µM)
[10]
  bactericidal activity (viability, CFU): bactericidal
  growth and CFU in combination with daptomycin: significantly inhibited growth of all strains and reduced CFU
[11]; Media 7H9, read-out: MIC
  MIC: 16 mg/L (≈ 50.9 µM)
[11]; Media PB, read-out: MIC
  MIC: 4 mg/L (≈ 12.7 µM)

## CCCCCc1cc(O)c(C/C=C(\C)CCC=C(C)C)c(O)c1 [CBG, cannabigerol]
[1]
  MIC: 1 mg/L (≈ 3.16 µM)
[2]
  Fold reduction in daptomycin MIC in combination with the cannabinoid: 64 Fold
[3]; Streptococcus pyogenes
  MIC: 1 mg/L (≈ 3.16 µM)
Enterococcus faecalis
  MIC: 1 mg/L (≈ 3.16 µM)
E. faecium VRE 55A6; E. faecium VRE 55A6
  MIC Alone: 2 mg/L
E. faecium VRE 55A6; [13]
  MIC In combination: 2 mg/L
  Max. fold change in MIC: 2 fold
E. faecium VRE 55A6; [14]
  MIC In combination: 2 mg/L
  Max. fold change in MIC: none
E. faecium VRE 55A6; [15]
  MIC In combination: 0.5 mg/L
  Max. fold change in MIC: 4 fold
E. faecium VRE 55A6
  MIC: 4 mg/L
[4]
  MIC: 1 mg/L (≈ 3.16 µM)
[5]
  MIC: 1 mg/L (≈ 3.16 µM)
[6]
  Fold reduction in daptomycin MIC in combination with the cannabinoid: 32 Fold
[7]
  MIC: 2 mg/L (≈ 6.32 µM)
[8]; Staphylococcus epidermidis
  MIC: 1 to 2 mg/L (≈ 3.16 to 6.32 µM)
[9]; [16]
  MIC: 1 to 2 mg/L (≈ 3.16 to 6.32 µM)
[9]; [17]
  MIC: 1 mg/L (≈ 3.16 µM)
[10]
  kinetics of E. faecium killing: faster than for CBO
  bactericidal activity (viability, CFU): bactericidal
  growth and CFU in combination with daptomycin: significantly inhibited growth of all strains and reduced CFU
[11]; Media 7H9, read-out: MIC
  MIC: 2 mg/L (≈ 6.32 µM)
[11]; Media PB, read-out: MIC
  MIC: 2 mg/L (≈ 6.32 µM)
[12]
  Fold reduction in daptomycin MIC in combination with the cannabinoid: 4 Fold

## CCCCCCCCCC(=O)N[C@@H](Cc1c[nH]c2ccccc12)C(=O)N[C@H](CC(N)=O)C(=O)N[C@@H](CC(=O)O)C(=O)N[C@@H]1C(=O)NCC(=O)N[C@@H](CCCN)C(=O)N[C@@H](CC(=O)O)C(=O)N[C@H](C)C(=O)N[C@@H](CC(=O)O)C(=O)NCC(=O)N[C@H](CO)C(=O)N[C@@H]([C@H](C)CC(=O)O)C(=O)N[C@@H](CC(=O)c2ccccc2N)C(=O)O[C@@H]1C [Daptomycin, daptomycin, reference compound]
[2]
  MIC: 8 mg/L (≈ 4.94 µM)
[2]; listed as daptomycin
  MIC: 4 mg/L (≈ 2.47 µM)
E. faecium VRE 55A6; E. faecium VRE 55A6
  MIC Alone: 16 mg/L and >16 mg/L
E. faecium VRE 55A6; [18]
  MIC In combination: 0.031 mg/L
  Max. fold change in MIC: 512 fold
E. faecium VRE 55A6; [19]
  MIC In combination: 1 mg/L
  Max. fold change in MIC: 16 fold
E. faecium VRE 55A6; [20]
  MIC In combination: 4 mg/L
  Max. fold change in MIC: 4 fold
E. faecium VRE 55A6; [14]
  MIC In combination: 8 mg/L
  Max. fold change in MIC: 2 fold
E. faecium VRE 55A6; [21]
  MIC of daptomycin (alone): > 16 mg/L
  MIC of daptomycin in the presence of CBC and trans caryophyllene: 0.03 mg/L
E. faecium VRE 55A6; [22]
  MIC In combination: 0.03 mg/L
  Max. fold change in MIC: >512 fold
E. faecium VRE 55A6; E. faecium VRE 55A6, triple, with CBC and trans-caryophyllene, listed as daptomycin
  Max. fold change in MIC: > 512 fold
E. faecium VRE 55A6; [23]
  MIC In combination: 2 mg/L
  Max. fold change in MIC: >8 fold
E. faecium VRE 55A6; [24]
  MIC In combination: 2 mg/L
  Max. fold change in MIC: >8 fold
[6]
  MIC: 2 mg/L (≈ 1.23 µM)
[6]; listed as daptomycin
  MIC: 1 mg/L (≈ 0.617 µM)
[10]; daptomycin alone at 1×MIC (growth inhibited)
  reduction in CFU: no reduction in CFU
[10]; single agent at ½×MIC, all strains (3303, 58C9, 55A6)
  inhibition of growth: effectively no inhibition of growth
[12]; clinical enterococcal strain 55A6, vancomycin and daptomycin resistant
  MIC: 8 mg/L (≈ 4.94 µM)
